| SMILES | flash point [°C] |
| --- | --- |
| CC(C)C1CCCCC1 [propan-2-ylcyclohexane] | 36.00 |
| C[Si]1(C)O[Si](C)(C)O[Si](C)(C)O[Si](C)(C)O1 | 55.00 |
| Cc1ccccc1N(C)C [N,N,2-trimethylaniline] | 83.00 |
| CCC(C)C(C)CO (stereo not drawn) [2,3-dimethylpentan-1-ol] | 61.00 |
| C=C/C=C/C [(3E)-penta-1,3-diene] | -29.00 |
| O=C1CCc2ccccc2O1 [3,4-dihydrochromen-2-one] | 130.00 |
| O=Cc1ccco1 [furan-2-carbaldehyde] | 60.00 |
| COC(=O)CCCC(=O)OC [dimethyl pentanedioate] | 103.00 |
| Cc1ccc2ccccc2c1 [2-methylnaphthalene] | 98.00 |
| CCCOCCO [2-propoxyethanol] | 49.00 |
| CN(C)CCC#N [3-(dimethylamino)propanenitrile] | 64.00 |
| Cc1cccc(C)c1N.Cl [2,6-dimethylaniline;hydrochloride] | 91.00 |
| c1cc[nH]c1 [1H-pyrrole] | 39.00 |
| CCCCCCCCCCCCCCCCCCO [octadecan-1-ol] | 200.00 |
| CN(C)C#N [dimethylcyanamide] | 71.00 |
| CCCC(CCC)C(=O)O [2-propylpentanoic acid] | 111.00 |
| CC(C)CC(C)Nc1ccc(Nc2ccccc2)cc1 (stereo not drawn) [4-N-(4-methylpentan-2-yl)-1-N-phenylbenzene-1,4-diamine] | 204.00 |
| COC(=O)C(C)O (stereo not drawn) [methyl 2-hydroxypropanoate] | 51.00 |
| C[CH2][Al]([Cl])[CH2]C.C[CH2][Al]([Cl])[Cl] [chloro(diethyl)alumane;dichloro(ethyl)alumane] | -20.00 |
| CCOP(=O)(OCC)OCC [triethyl phosphate] | 116.00 |
| CCCCCCC [heptane] | -4.00 |
| [CH3][Pb]([CH3])([CH3])[CH3] [tetramethylplumbane] | 38.00 |
| O=C1CCCN1 [pyrrolidin-2-one] | 129.00 |
| C=CCN(CC=C)C(=O)CCl [2-chloro-N,N-bis(prop-2-enyl)acetamide] | 186.00 |
| COC(=O)CCl [methyl 2-chloroacetate] | 52.00 |

| SMILES | flash point [°C] |
| --- | --- |
| NC(=O)c1cccnc1 [pyridine-3-carboxamide] | 182.00 |
| CC(C)[N+](=O)[O-] [2-nitropropane] | 24.00 |
| C[CH2][Al]([Cl])[CH2]C [chloro(diethyl)alumane] | -23.00 |
| C=C(C)C(=O)OC [methyl 2-methylprop-2-enoate] | 10.00 |
| CCCCCCCCCc1ccc(O)c(CCCCCCCCC)c1 [2,4-di(nonyl)phenol] | 127.00 |
| Clc1ccccc1 [chlorobenzene] | 24.00 |
| CCC#N [propanenitrile] | 2.00 |
| NNc1ccccc1 [phenylhydrazine] | 88.00 |
| CCCCCCCCCCCCCCCC [hexadecane] | 135.00 |
| O=Cc1ccccc1O [2-hydroxybenzaldehyde] | 78.00 |
| c1ccc(OP(Oc2ccccc2)Oc2ccccc2)cc1 [triphenyl phosphite] | 218.00 |
| C=CC(=O)OCCCCCCCCCCCCC [tridecyl prop-2-enoate] | 132.00 |
| C#CCC1=C(C)C(OC(=O)[C@H]2[C@H](C=C(C)C)C2(C)C)CC1=O (stereo partly drawn) | 139.00 |
| CCCN(CCC)C(=O)SCC [S-ethyl N,N-dipropylcarbamothioate] | 116.00 |
| c1ccsc1 [thiophene] | -1.00 |
| C[Si](C)(C)O[Si](C)(O[Si](C)(C)C)O[Si](C)(C)C [trimethyl-[methyl-bis(trimethylsilyloxy)silyl]oxysilane] | 86.00 |
| CCC(=O)CC [pentan-3-one] | 13.00 |
| O=Cc1c(Cl)cccc1Cl [2,6-dichlorobenzaldehyde] | 135.00 |
| C1=CCC=C1.C1=CCC=C1.[Ni] [cyclopenta-1,3-diene;nickel] | 4.00 |
| CC(O)CCO (stereo not drawn) [butane-1,3-diol] | 121.00 |
| c1ccc(COCc2ccccc2)cc1 [phenylmethoxymethylbenzene] | 135.00 |
| CCC(Cl)[N+](=O)[O-] (stereo not drawn) [1-chloro-1-nitropropane] | 62.00 |
| CCCCCCCC(=O)Oc1c(Br)cc(C#N)cc1Br [(2,6-dibromo-4-cyanophenyl) octanoate] | 102.00 |
| O=C(O)c1ccccc1O [2-hydroxybenzoic acid] | 157.00 |
| c1ccc(Nc2ccccc2)cc1 [N-phenylaniline] | 153.00 |

| SMILES | flash point [°C] |
| --- | --- |
| CC1(C)C(C(=O)OC(C#N)c2cccc(Oc3ccccc3)c2)C1C(Br)C(Br)(Br)Br (stereo not drawn) | 26.00 |
| Nc1ccncc1 [pyridin-4-amine] | 164.00 |
| Oc1ccccc1O [benzene-1,2-diol] | 127.00 |
| C=C(C)C1CC=C(C)CC1 (stereo not drawn) [1-methyl-4-prop-1-en-2-ylcyclohexene] | 46.00 |
| CCC(=O)Cl [propanoyl chloride] | 12.00 |
| OCCOCCO [2-(2-hydroxyethoxy)ethanol] | 143.00 |
| Cc1ccccc1C [1,2-xylene] | 17.00 |
| Nc1ccccc1C(=O)O [2-aminobenzoic acid] | 171.00 |
| NCc1cccc(CN)c1 [[3-(aminomethyl)phenyl]methanamine] | 117.00 |
| CC(CO)CO [2-methylpropane-1,3-diol] | 127.00 |
| CCON=O [ethyl nitrite] | -35.00 |
| c1ccc(Nc2ccc(Nc3ccccc3)cc2)cc1 [1-N,4-N-diphenylbenzene-1,4-diamine] | 204.00 |
| Clc1cccc(-c2cc(Cl)cc(Cl)c2)c1 [1,3-dichloro-5-(3-chlorophenyl)benzene] | 141.00 |
| O=[N+]([O-])c1ccccc1-c1ccccc1 [1-nitro-2-phenylbenzene] | 143.00 |
| CC(=O)OC1CCCCC1 [cyclohexyl acetate] | 58.00 |
| CCCCOCCOP(=O)(OCCOCCCC)OCCOCCCC [tris(2-butoxyethyl) phosphate] | 224.00 |
| COc1nn(CSP(=S)(OC)OC)c(=O)s1 | 100.00 |
| CC(N)CN (stereo not drawn) [propane-1,2-diamine] | 33.00 |
| CC1(C)CC(N)CC(C)(CN)C1 (stereo not drawn) [3-(aminomethyl)-3,5,5-trimethylcyclohexan-1-amine] | 110.00 |
| CN(C)CCCC1(c2ccccc2)C(=O)N(N(C)Cc2ccccc2F)c2ccccc21 (stereo not drawn) | 193.00 |
| Clc1cccc(Cl)c1 [1,3-dichlorobenzene] | 63.00 |
| CCc1ccc(C)nc1 [5-ethyl-2-methylpyridine] | 68.00 |
| COCCOCCOCCOC [1-methoxy-2-[2-(2-methoxyethoxy)ethoxy]ethane] | 111.00 |

From a flash point compilation (Sun et al. 2020)
